“Also recorded” adds a separate entry of the source.
Columns and labels:
[1] = tested on: carrageenan-induced paw oedema; assay: Carrageenan-induced rat paw oedema; type: in vivo; details: 50 mg/kg oral; for %Inhibition of paw oedema, 1h / Paw thickness change mean ± SEM, 1h: 1 h after carrageenan; for Paw thickness change mean ± SEM, 1h / Paw thickness change mean ± SEM, 3h / Paw thickness change mean ± SEM, 5h: n = 4; for %Inhibition of paw oedema, 3h / Paw thickness change mean ± SEM, 3h: 3 h after carrageenan; for %Inhibition of paw oedema, 5h / Paw thickness change mean ± SEM, 5h: 5 h after carrageenan
Experimental: Female wister rats (150-200 g) were used in this study. The animals were kept at controlled conditions (temperature 23 ± 2 °C, humidity 60 ± 10%) and a 12/12-h light/dark cycle with access to food and water. All procedures relating to animal care and treatments were performed according to protocols approved by the Research Ethical Committee of Faculty of Pharmacy Beni-Suef University (2014-Beni-Suef, Egypt). The anti-inflammatory activity of the synthesised compounds was determined in vivo by […]-induced paw oedema method in rats[49]. Rats were divided into 21 groups of four animals each, and then, they were fasted overnight with free access to water before the experiment. Before any drug administration, thickness of the left hind paw of each rat was measured in millimetres. Group 1 served as a control and administered the vehicle (2.5% Tween 80).

ovine COX-2 = molecular target: T1, ovine COX-2 (Ovis aries, UniProt P79208); assay: In vitro COX-2 inhibition assay (EIA kit, Cayman); details: for IC50: IC50 COX-2, ovine COX-2, mean of two determinations; for SI, COX-2 selectivity index (COX-1 IC50/COX-2 IC50): ovine enzymes
T1 sequence (P79208 17-603): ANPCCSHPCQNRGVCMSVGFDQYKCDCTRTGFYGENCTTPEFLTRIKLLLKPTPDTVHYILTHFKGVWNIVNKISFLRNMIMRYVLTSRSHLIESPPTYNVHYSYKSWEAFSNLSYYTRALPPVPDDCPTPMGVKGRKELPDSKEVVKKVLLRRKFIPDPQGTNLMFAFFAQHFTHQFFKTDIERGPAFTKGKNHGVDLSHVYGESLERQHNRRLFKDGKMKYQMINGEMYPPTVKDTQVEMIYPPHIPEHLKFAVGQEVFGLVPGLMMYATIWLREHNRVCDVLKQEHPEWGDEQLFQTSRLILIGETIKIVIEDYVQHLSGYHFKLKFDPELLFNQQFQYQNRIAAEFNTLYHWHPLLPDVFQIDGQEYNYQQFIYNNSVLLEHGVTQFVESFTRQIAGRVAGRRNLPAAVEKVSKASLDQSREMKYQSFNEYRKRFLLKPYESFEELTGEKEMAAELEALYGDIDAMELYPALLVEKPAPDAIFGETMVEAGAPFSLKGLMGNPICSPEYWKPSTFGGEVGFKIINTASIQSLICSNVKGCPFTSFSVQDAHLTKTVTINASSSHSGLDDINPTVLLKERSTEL
Experimental: (§1) The peroxidase activity of cyclooxygenase enzyme isoforms was measured using the COX activity assay kit. The ability of the test compounds to inhibit both ovine COX-1 and COX-2 enzymes was explored in vitro using a colorimetric enzyme immunoassay (EIA) kit. The appearance of oxidised N,N,N′,N′-tetramethyl-p-phenylenediamine (TMPD) was monitored at 590 nm. The kit includes isozyme-specific inhibitors for distinguishing COX-2 activity from that of COX-1.

ovine COX-1 = molecular target: T2, ovine COX-1 (Ovis aries, UniProt P05979); assay: In vitro COX-1 inhibition assay (EIA kit, Cayman)
T2 sequence (P05979 25-600): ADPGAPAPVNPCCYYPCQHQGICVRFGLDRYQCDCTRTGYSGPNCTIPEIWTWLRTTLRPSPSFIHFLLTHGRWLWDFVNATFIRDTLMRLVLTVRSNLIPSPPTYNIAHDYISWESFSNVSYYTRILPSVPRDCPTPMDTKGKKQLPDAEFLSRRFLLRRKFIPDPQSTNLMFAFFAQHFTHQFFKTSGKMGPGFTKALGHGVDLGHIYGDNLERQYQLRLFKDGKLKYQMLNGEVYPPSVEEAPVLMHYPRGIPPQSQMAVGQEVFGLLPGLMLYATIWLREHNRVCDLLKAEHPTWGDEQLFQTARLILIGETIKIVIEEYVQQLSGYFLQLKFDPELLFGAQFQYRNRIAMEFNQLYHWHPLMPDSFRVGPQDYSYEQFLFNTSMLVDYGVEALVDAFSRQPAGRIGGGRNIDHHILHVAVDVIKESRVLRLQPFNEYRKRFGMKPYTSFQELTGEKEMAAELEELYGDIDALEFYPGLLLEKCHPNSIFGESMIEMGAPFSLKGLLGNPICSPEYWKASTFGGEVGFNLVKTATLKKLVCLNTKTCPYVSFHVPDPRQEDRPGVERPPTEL
Experimental: as §1

[2] = tested on: gastric mucosa (ulcer number, ulcer index); assay: Ulcerogenic liability; type: in vivo, rat; details: 50 mg/kg oral, three successive days, rats; for Ulcer index: sum of % incidence, average severity and average number of ulcers
Experimental: Female wister rats (150–200 g) were used in this study. The animals were kept at controlled conditions (temperature 23 ± 2 °C, humidity 60 ± 10%) and a 12/12-h light/dark cycle with access to food and water. All procedures relating to animal care and treatments were performed according to protocols approved by the Research Ethical Committee of Faculty of Pharmacy Beni-Suef University (2014-Beni-Suef, Egypt).
[…]. Forty-eight rats were used in this study, divided into 12 groups and fasted for 18 h before drug administration. The control group received the vehicle (2.5% Tween 80). Other groups received test compounds, celecoxib or indomethacin at a dose of 50 mg/kg, then animals were fed after 2 h. Rats were given the specified dose orally for three successive days. Rats were sacrificed after 2 h of the last dose, then the stomach of each rat was removed and opened along the greater curvature for determination of the ulcer number and ulcer index according to the reported method.

rat's gastric tissue = assay: Histopathological investigation of stomach; type: in vivo; details: haematoxylin and eosin, after ulcerogenic liability dosing
Experimental: Whole rats stomach were collected, selected stomach samples from each rat were fixed in 10% neutral buffered formalin for 48 h and routinely processed for paraffin embedding. 5 μm Thickness sections were obtained then stained with haematoxylin and eosin for histopathological evaluation.

abdominal writhings = assay: Acetic acid-induced writhing test (peripheral analgesic activity); details: 10 mg/kg oral, mice, 0.6% acetic acid i.p.
From the text: Pain was induced by intraperitoneal injection of acetic acid, then counting the number of abdominal writhings.

[3] = tested on: latency time of pain response; assay: Hot plate method (central analgesic activity); type: in vivo; details: 10 mg/kg oral, mice, hot plate 55 °C, after 60 min
Experimental: This method was used to evaluate the central analgesic activity by determination of the delay in the latency time of pain response. […] After 60 min, the animals were placed on a hot plate maintained at 55 ± 0.5 °C. The reaction time was recorded as the time taken by the animals to […] or lick the fore or hind paw or jump off the plate.

[4] = cited from earlier work
COX-2 = details: cited from earlier work

SMILES | %Inhibition of paw oedema, 1h [1] [%] | Paw thickness change mean ± SEM, 1h [1] [mm] | %Inhibition of paw oedema, 3h [1] [%] | Paw thickness change mean ± SEM, 3h [1] [mm] | %Inhibition of paw oedema, 5h [1] [%] | Paw thickness change mean ± SEM, 5h [1] [mm] | IC50 (ovine COX-2) [µM] | SI, COX-2 selectivity index (COX-1 IC50/COX-2 IC50) (ovine COX-2) | IC50 (ovine COX-1) [µM] | Average number of ulcers [2] | Ulcer index [2] | Histopathological findings in stomach (rat's gastric tissue) | melting point [°C] | Peripheral analgesic activity (writhing) (abdominal writhings) | Central analgesic activity (delay in latency time) [3] | Gastric ulceration side effect [4] | COX-2/COX-1 selectivity (SI) (COX-2)
CN(C)c1ccc(-c2cc(-c3ccc(-n4cnnn4)cc3)[nH]c(=O)c2C#N)cc1 [Compound 5d, 6-[4-(1H-Tetrazol-1-yl)phenyl]-4-[4-(dimethylamino)phenyl]-2-oxo-1,2-dihydropyridine-3-carbonitrile] | 71 | 0.45 ± 0.10 | 63 | 0.61 ± 0.12 | 43 | 0.76 ± 0.15 | 0.45 | 25.13 | 11.3 | 1.25 | 1.50 | Mucous degeneration in gastric glandular epithelium, thickening and hyalinosis of basement membrane, as well as eosinophilic infiltrations in submucosa | 263 to 265 | most active | – | – | –
COc1ccc(-c2cc(-c3ccc(-n4cnnn4)cc3)[nH]c(=O)c2C#N)cc1OC [Compound 5e, 6-[4-(1H-Tetrazol-1-yl)phenyl]-4-(3,4-dimethoxyphenyl)-2-oxo-1,2-dihydropyridine-3-carbonitrile] | 71 | 0.45 ± 0.16 | 42 | 0.98 ± 0.03 | 49 | 0.68 ± 0.08 | – | 37.57 | 7.14 | 1.00 | 1.25 | affect only muscular layer of the stomach by causing corrugation and hyalinosis in some muscle bundles and reach to coagulative necrosis | 272 to 274 | most active | potent analgesic activities | – | –
COc1ccc(C2CC(c3ccc(-n4cnnn4)cc3)=NN2c2ccc(S(N)(=O)=O)cc2)cc1OC (stereo not shown) [Compound 9a, 4-{3-[4-(1H-Tetrazol-1-yl)phenyl]-5-(3,4-dimethoxyphenyl)-4,5-dihydro-1H-pyrazol-1-yl)benzenesulphonamide] | 75 | 0.40 ± 0.00 | 39 | 1.03 ± 0.09 | 19 | 1.08 ± 0.20 | 0.33 | 21.54 | 7.11 | 1.25 | 2.00 | sever congestion in blood capillaries and lymphocytic infiltration; also recorded: caused destructive effect on the mucosa and ulceration | 226 to 228 | most active | – | – | –
O=C1OCC(c2ccc(-c3nnn[nH]3)cc2)=C1c1ccccc1 [VI] | – | – | – | – | – | – | – | – | – | – | – | – | – | – | – | lacked the side effect of gastric ulceration | 2.11
Cc1ccc(-c2cc(C(F)(F)F)nn2-c2ccc(-c3nnn[nH]3)cc2)cc1 [V] | – | – | – | – | – | – | – | – | – | – | – | – | – | – | – | lacked the side effect of gastric ulceration | 2.16

Source: paper PMC6445242, “Novel tetrazole and cyanamide derivatives as inhibitors of cyclooxygenase-2 enzyme: design, synthesis, anti-inflammatory evaluation, ulcerogenic liability and docking study” (Journal of Enzyme Inhibition and Medicinal Chemistry, 2017)
